Experimental findings from PubChem BioAssay AID248 (DTP/NCI, 2004) are described below.

“And” between values parts separate entries of the source, which are not always exact repeats. Equal values may be shown once. Inconclusive results and toxic doses are left out.

This assay deals with L1210 leukemia ip in BDF1 mice, survival T/C. Description: NCI In Vivo Anticancer Drug Screen. Data for tumor model L1210 Leukemia (intraperitoneal) in B6D2F1 (BDF1) mice. Particulars: endpoint: mean survival time, higher = longer survival. The gist of the method:
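Tumor was transplanted into mice, which were then dosed with test compound or vehicle alone. Survival was recorded for each group, and the treated figure was expressed relative to the control figure.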

The mark [1] stands for this setting: dose: 100.0 mg/kg/injection, schedule: Q04DX002 (ip), vehicle: Klucel (hydroxypropylcellulose) (HPC).
The mark [2] stands for this setting: dose: 200.0 mg/kg/injection, schedule: Q04DX002 (ip), vehicle: Klucel (hydroxypropylcellulose) (HPC).
Setting [3] is: dose: 100.0 mg/kg/injection, schedule: Q01DX009 (ip), vehicle: saline with Tween-80.
[4] abbreviates: dose: 200.0 mg/kg/injection, schedule: Q01DX009 (ip), vehicle: saline with Tween-80.
Where [5] appears, read: dose: 400.0 mg/kg/injection, schedule: Q01DX009 (ip), vehicle: saline with Tween-80.
The mark [6] stands for this setting: dose: 100.0 mg/kg/injection, schedule: Q01DX009 (ip), vehicle: Klucel (hydroxypropylcellulose) (HPC).
Where [7] appears, read: dose: 100.0 mg/kg/injection, schedule: Q04DX003 (ip), vehicle: Klucel (hydroxypropylcellulose) (HPC).
Where [8] appears, read: dose: 200.0 mg/kg/injection, schedule: Q01DX009 (ip), vehicle: Klucel (hydroxypropylcellulose) (HPC).
The mark [9] stands for this setting: dose: 200.0 mg/kg/injection, schedule: Q04DX003 (ip), vehicle: Klucel (hydroxypropylcellulose) (HPC).
[10] abbreviates: dose: 400.0 mg/kg/injection, schedule: Q01DX009 (ip), vehicle: Klucel (hydroxypropylcellulose) (HPC).
Setting [11] is: dose: 400.0 mg/kg/injection, schedule: Q04DX003 (ip), vehicle: Klucel (hydroxypropylcellulose) (HPC).
The mark [12] stands for this setting: dose: 100.0 mg/kg/injection, schedule: Q04DX003 (ip), vehicle: saline with Tween-80.
Where [13] appears, read: dose: 200.0 mg/kg/injection, schedule: Q04DX003 (ip), vehicle: saline with Tween-80.
Where [14] appears, read: dose: 400.0 mg/kg/injection, schedule: Q04DX003 (ip), vehicle: saline with Tween-80.

For `CCOc1cc(/C=N\Nc2nncn2N)ccc1N(CCCl)CCCl`, the T/C is, setting by setting: (dose: 0.5 mg/kg/injection, schedule: Q01DX015 (ip), vehicle: carboxymethylcellulose (CMC)) 109 % of control; (dose: 1.0 mg/kg/injection, schedule: Q01DX015 (ip), vehicle: carboxymethylcellulose (CMC)) 111 % of control; (dose: 2.0 mg/kg/injection, schedule: Q01DX015 (ip), vehicle: carboxymethylcellulose (CMC)) 116 % of control; (dose: 4.0 mg/kg/injection, schedule: Q01DX015 (ip), vehicle: carboxymethylcellulose (CMC)) 101 % of control and 109 % of control; (dose: 5.0 mg/kg/injection, schedule: Q01DX001 (ip), vehicle: carboxymethylcellulose (CMC)) 98 % of control and 117 % of control; (dose: 7.0 mg/kg/injection, schedule: Q01DX015 (ip), vehicle: carboxymethylcellulose (CMC)) 107 % of control and 90 % of control. Further, the T/C was 101 % of control (dose: 10.0 mg/kg/injection, schedule: Q01DX001 (ip), vehicle: carboxymethylcellulose (CMC)); 98 % of control and 117 % of control (dose: 12.0 mg/kg/injection, schedule: Q01DX015 (ip), vehicle: carboxymethylcellulose (CMC)); 95 % of control and 106 % of control (dose: 20.0 mg/kg/injection, schedule: Q01DX001 (ip), vehicle: carboxymethylcellulose (CMC)); 120 % of control (dose: 20.0 mg/kg/injection, schedule: Q01DX015 (ip), vehicle: carboxymethylcellulose (CMC)); 106 % of control (dose: 40.0 mg/kg/injection, schedule: Q01DX001 (ip), vehicle: carboxymethylcellulose (CMC)).

In the case of `Cc1cc(C)c(S(N)(=O)=O)c(C)c1`, the T/C runs as follows: (dose: 50.0 mg/kg/injection, schedule: Q04DX002 (ip), vehicle: Klucel (hydroxypropylcellulose) (HPC)) 94 % of control; under setting [1], 107 % of control; under setting [2], 94 % of control.

Take `CC(=O)Nc1ccc(/C=C(\C#N)c2ccc([N+](=O)[O-])cc2)cc1`: the T/C (dose: 100.0 mg/kg/injection, schedule: Q04DX002 (ip), vehicle: gum acacia) was 95 % of control; the T/C (dose: 200.0 mg/kg/injection, schedule: Q04DX002 (ip), vehicle: gum acacia) is 103 % of control; the T/C (dose: 400.0 mg/kg/injection, schedule: Q04DX002 (ip), vehicle: gum acacia) is 95 % of control.

In the case of `O=C(CC(=O)Oc1ccc(Cl)cc1Cl)Oc1ccc(Cl)cc1Cl`, the T/C under setting [3] was 93 % of control, the T/C under setting [4] is 90 % of control and the T/C under setting [5] is 95 % of control.

For the compound `CCN(CC)CCOC(=O)Cc1ccccc1`, the T/C is, setting by setting: under setting [6], 94 % of control; under setting [7], 97 % of control; under setting [8], 104 % of control; under setting [9], 100 % of control; under setting [10], 105 % of control; under setting [11], 100 % of control.

For the compound `O=C1c2ccccc2-c2cc(Cl)c(Cl)cc21`, the T/C reads like this: under setting [7], 96 % of control; under setting [9], 103 % of control; under setting [11], 105 % of control.

Regarding `O=C(O)CNC(=O)c1ccc(NC(=S)Nc2ccccc2)cc1`, the T/C was 90 % of control (dose: 25.0 mg/kg/injection, schedule: Q01DX009 (ip), vehicle: Klucel (hydroxypropylcellulose) (HPC)); 88 % of control (dose: 50.0 mg/kg/injection, schedule: Q01DX009 (ip), vehicle: Klucel (hydroxypropylcellulose) (HPC)); 108 % of control and 91 % of control under setting [6].

`NCCS(=O)CCN`: the T/C is, setting by setting: (dose: 100.0 mg/kg/injection, schedule: Q01DX009 (ip), vehicle: saline) 100 % of control; (dose: 200.0 mg/kg/injection, schedule: Q01DX009 (ip), vehicle: saline) 107 % of control; (dose: 400.0 mg/kg/injection, schedule: Q01DX009 (ip), vehicle: saline) 94 % of control.

For the compound `CCOC(=O)c1ccc(NC(=O)Nc2ccc(Cl)cc2)cc1`, the T/C is, setting by setting: under setting [6], 97 % of control; under setting [7], 96 % of control; under setting [8], 104 % of control; under setting [9], 104 % of control; under setting [10], 97 % of control; under setting [11], 100 % of control.

`CCCCCCCCCCCCC/C=N/Nc1ccc([N+](=O)[O-])cc1[N+](=O)[O-]`: the T/C reads like this: (dose: 50.0 mg/kg/injection, schedule: Q01DX009 (ip), vehicle: saline with Tween-80) 100 % of control; under setting [3], 93 % of control; under setting [4], 93 % of control.

`O=[N+]([O-])c1ccc(S(=O)(=O)c2ccccc2)c([N+](=O)[O-])c1`: the T/C runs as follows: (dose: 6.0 mg/kg/injection, schedule: Q01DX001 (ip), vehicle: saline) 93 % of control; (dose: 12.0 mg/kg/injection, schedule: Q01DX001 (ip), vehicle: saline) 100 % of control; (dose: 25.0 mg/kg/injection, schedule: Q01DX001 (ip), vehicle: saline) 91 % of control; (dose: 50.0 mg/kg/injection, schedule: Q01DX001 (ip), vehicle: saline) 100 % of control and 105 % of control; (dose: 200.0 mg/kg/injection, schedule: Q01DX001 (ip), vehicle: saline) 95 % of control.

With `CC1(C)CCOC(C2OCCC(C)(C)O2)O1` (configuration not stated), the T/C runs as follows: (dose: 50.0 mg/kg/injection, schedule: Q01DX009 (ip), vehicle: acetone) 113 % of control; (dose: 100.0 mg/kg/injection, schedule: Q01DX009 (ip), vehicle: acetone) 93 % of control; (dose: 200.0 mg/kg/injection, schedule: Q01DX009 (ip), vehicle: acetone) 98 % of control.

In the case of `COC(=O)c1ccc(O)c(C(=O)OC)c1`, the T/C is 92 % of control (dose: 100.0 mg/kg/injection, schedule: Q01DX001 (ip), vehicle: carboxymethylcellulose (CMC)); 97 % of control (dose: 200.0 mg/kg/injection, schedule: Q01DX001 (ip), vehicle: carboxymethylcellulose (CMC)); 103 % of control (dose: 400.0 mg/kg/injection, schedule: Q01DX001 (ip), vehicle: carboxymethylcellulose (CMC)).

As for `O=Cc1csc2ncccc12`, the T/C is, setting by setting: under setting [12], 103 % of control; under setting [13], 100 % of control; under setting [14], 105 % of control.

Consider `O=C(O)C1CCCCC1C(=O)O` (configuration not stated), for which the T/C (dose: 100.0 mg/kg/injection, schedule: Q01DX001 (ip), vehicle: Klucel (hydroxypropylcellulose) (HPC)) was 103 % of control; the T/C under setting [7] is 101 % of control; the T/C (dose: 100.0 mg/kg/injection, schedule: Q04DX003 (ip), vehicle: saline) is 95 % of control; the T/C (dose: 200.0 mg/kg/injection, schedule: Q01DX001 (ip), vehicle: Klucel (hydroxypropylcellulose) (HPC)) was 91 % of control; the T/C under setting [9] was 97 % of control; the T/C (dose: 200.0 mg/kg/injection, schedule: Q04DX003 (ip), vehicle: saline) was 98 % of control. Besides, the T/C is, setting by setting: (dose: 400.0 mg/kg/injection, schedule: Q01DX001 (ip), vehicle: Klucel (hydroxypropylcellulose) (HPC)) 93 % of control; under setting [11], 97 % of control; (dose: 400.0 mg/kg/injection, schedule: Q04DX003 (ip), vehicle: saline) 98 % of control.

In the case of `Clc1ccc(CSc2ncc(Br)c(Nc3cc(Cl)ccc3Cl)n2)cc1`, the T/C runs as follows: (dose: 50.0 mg/kg/injection, schedule: Q01DX Z (ip), vehicle: methylcellulose (MC)) 96 % of control; (dose: 200.0 mg/kg/injection, schedule: Q01DX Z (ip), vehicle: methylcellulose (MC)) 89 % of control.

Consider `O=[N+]([O-])c1ccc(N/N=C\c2ccc(OCCOCCCl)cc2)c([N+](=O)[O-])c1`, for which the T/C was 94 % of control (dose: 25.0 mg/kg/injection, schedule: Q01DX001 (ip), vehicle: saline with Tween-80); 86 % of control (dose: 50.0 mg/kg/injection, schedule: Q01DX001 (ip), vehicle: saline with Tween-80); 94 % of control and 92 % of control (dose: 100.0 mg/kg/injection, schedule: Q01DX001 (ip), vehicle: saline with Tween-80).

As to `Cc1cccc(C)c1NC(=O)C(C)C`, the T/C is, setting by setting: under setting [3], 94 % of control; under setting [12], 98 % of control; under setting [4], 95 % of control; under setting [13], 98 % of control; under setting [5], 90 % of control; under setting [14], 96 % of control.

For the compound `OCC1OC(n2cnc3c(SCc4ccccc4)nc(NO)nc32)C(O)C1O` (configuration not stated), the T/C (dose: 267.0 mg/kg/injection, schedule: Q01DX001 (ip), vehicle: saline with Tween-80) was 150 % of control.

`O=C(Oc1ccccc1)c1ccc2ccccc2c1O`: the T/C is 100 % of control under setting [1]; 91 % of control under setting [2]; 100 % of control (dose: 400.0 mg/kg/injection, schedule: Q04DX002 (ip), vehicle: Klucel (hydroxypropylcellulose) (HPC)).
